In brackets after ≈: the same amount, converted by molar mass. Like-named read-outs stand apart in the source and are kept apart here.
Tests used:
[1] = test system: Mycobacterium tuberculosis H37Rv CNCTC My 331/88 (ATCC 27294); experiment: Antimycobacterial microplate alamar blue assay, M. tuberculosis H37Rv; format: cell-based; conditions: for Antimycobacterial Activity MIC Mtb H37Rv: Middlebrook 7H9 broth pH 6.6, alamar blue; for MIC: Mycobacterium tuberculosis
[2] = test system: Mycobacterium smegmatis DSM 43465 (ATCC 607); experiment: Antimycobacterial microdilution assay, M. smegmatis; format: cell-based; conditions: Middlebrook 7H9 broth, resazurin after 48 hours; for MIC: Mycolicibacterium smegmatis, 48 h, read-out: Antimycobacterial Activity MIC M. smeg
[3] = test system: M. kansasii CNCTC My 235/80 (ATCC 12478); experiment: Antimycobacterial microplate alamar blue assay, M. kansasii; format: cell-based, Mycobacterium kansasii; conditions: for MIC: Mycobacterium kansasii
[4] = test system: Mycobacterium aurum DSM 43999 (ATCC 23366); experiment: Antimycobacterial microdilution assay, M. aurum; format: cell-based; conditions: Middlebrook 7H9 broth, resazurin after 72 hours; for MIC: Mycolicibacterium aurum, 72 h
[5] = in vitro; conditions: human
[6] = test system: M. avium ssp. avium CNCTC My 80/72 (ATCC 15769); experiment: Antimycobacterial microplate alamar blue assay, M. avium; format: cell-based, Mycobacterium avium; conditions: for MIC: Mycobacterium avium
[7] = ATCC12478, pH 6.6, Middlebrook 7H9 broth pH 6.6, alamar blue, read-out: Antimycobacterial Activity MIC M. kansasii
[8] = Table 4 comparison, title compounds, read-out: Antimycobacterial Activity MIC against Mtb H37Rv, Sulfonamide
[9] = pH 6.6, Middlebrook 7H9 broth pH 6.6, alamar blue, read-out: Antimycobacterial Activity MIC Mtb H37Rv
[10] = ATCC15769, pH 6.6, Middlebrook 7H9 broth pH 6.6, alamar blue, read-out: Antimycobacterial Activity MIC M. avium
[11] = ATCC12478, molar value printed beside μg/mL in text, read-out: MIC M. kansasii
[12] = Middlebrook 7H9 broth pH 6.6, alamar blue

| SMILES | Antimycobacterial Activity MIC Mtb H37Rv [1] | MIC ([1]; pH 6.6, read-out: Antimycobacterial Activity MIC Mtb H37Rv) [µg/mL] | MIC [2] [µg/mL] | MIC [3, 7] [µg/mL] | MIC [1, 8] [µg/mL] | MIC [1, 9] [µg/mL] | MIC [4] [µg/mL] | IC50 at 24 h [5] [µM] | melting point [°C] | MIC [6, 10] [µg/mL] | MIC [3, 11] [µM] | MIC ([1]; read-out: MIC Mtb H37Rv) [µM] | MIC ([6]; ATCC15769, molar value printed beside μg/mL in text, read-out: MIC M. avium) [µM] | Antimycobacterial Activity MIC M. smeg [2] [µg/mL] | Antimycobacterial Activity MIC M. aurum [4] [µg/mL] | Antimycobacterial Activity MIC M. kansasii [3, 12] [µg/mL] | Antimycobacterial Activity MIC M. avium [6, 12] [µg/mL] |
| --- | --- | --- | --- | --- | --- | --- | --- | --- | --- | --- | --- | --- | --- | --- | --- | --- | --- |
| NS(=O)(=O)c1ccccc1 [Benzenesulfonamide, benzenesulfonamide] | completely inactive | > 100 | – | – | – | – | – | – | – | – | – | – | – | – | – | – | – |
| O=S(=O)(Nc1cnccn1)c1ccccc1 [Compound 1a, N-(pyrazin-2-yl)benzenesulfonamide] | – | – | ≥ 250 | 100 | > 100 | > 100 | ≥ 500 | > 1000 | 203 to 205 | > 100 | – | – | – | – | – | – | – |
| O=S(=O)(Nc1cncc(Cl)n1)c1ccccc1 [Compound 1b, N-(6-chloropyrazin-2-yl)benzenesulfonamide] | – | – | 250 (≈ 927 µM) | 100 | 50 | 50 | ≥ 500 | 731 | 198 to 200.2 | > 100 | – | – | – | – | – | – | – |
| CC(=O)Nc1ccc(S(=O)(=O)Nc2cnccn2)cc1 [Compound 2a, N-(4-(N-(pyrazin-2-yl)sulfamoyl)phenyl)acetamide] | – | – | ≥ 500 | 25 | – | > 100 | ≥ 500 | > 500 | 243.8 to 245.6 | > 100 | 85.5 | – | – | – | – | – | – |
| CC(=O)Nc1ccc(S(=O)(=O)Nc2cncc(Cl)n2)cc1 [Compound 2b, N-(4-(N-(6-chloropyrazin-2-yl)sulfamoyl)phenyl)acetamide] | – | – | 250 (≈ 765 µM) | 25 | – | > 100 | ≥ 500 | > 500 | – | > 100 | 76.5 | – | – | – | – | – | – |
| O=[N+]([O-])c1ccc(S(=O)(=O)Nc2cnccn2)cc1 [Compound 3a, 4-nitro-N-(pyrazin-2-yl)benzenesulfonamide] | – | – | > 500 | > 100 | – | > 100 | > 500 | > 1000 | 230.8 to 231.8 | > 100 | – | – | – | – | – | – | – |
| O=[N+]([O-])c1ccc(S(=O)(=O)Nc2cncc(Cl)n2)cc1 [Compound 3b, N-(6-chloropyrazin-2-yl)-4-nitrobenzenesulfonamide] | – | – | 250 (≈ 794 µM) | > 100 | – | > 100 | 125 (≈ 397 µM) | > 1000 | – | > 100 | – | – | – | – | – | – | – |
| Nc1ccc(S(=O)(=O)Nc2cnccn2)cc1 [Compound 4a, 4-amino-N-(pyrazin-2-yl)benzenesulfonamide] | – | – | ≥ 500 | – | – | 6.25 | 250 (≈ 999 µM) | 776 | – | 100 | 6.2 | 25 | – | – | – | – | – |
| Nc1ccc(S(=O)(=O)Nc2cncc(Cl)n2)cc1 [Compound 4b, 4-amino-N-(6-chloropyrazin-2-yl)benzenesulfonamide] | – | – | ≥ 500 | 12.5 | – | 6.25 | 250 (≈ 878 µM) | > 500 | 234.7 to 236.1 | 25 | 44 | 22 | 88 | – | – | – | – |
| O=S(=O)(Nc1cnccn1)c1ccc(C(F)(F)F)cc1 [Compound 5a, N-(pyrazin-2-yl)-4-(trifluoromethyl)benzenesulfonamide] | – | – | 250 (≈ 824 µM) | 50 | – | > 100 | 250 (≈ 824 µM) | > 1000 | 154.3 to 155.5 | > 100 | – | – | – | – | – | – | – |
| O=S(=O)(Nc1cncc(Cl)n1)c1ccc(C(F)(F)F)cc1 [Compound 5b, N-(6-chloropyrazin-2-yl)-4-(trifluoromethyl)benzenesulfonamide] | – | – | 250 (≈ 740 µM) | > 100 | – | 100 | 250 (≈ 740 µM) | 364 | 125 to 127.2 | > 100 | – | – | – | – | – | – | – |
| COc1ccc(S(=O)(=O)Nc2cnccn2)cc1 [Compound 6a, 4-methoxy-N-(pyrazin-2-yl)benzenesulfonamide] | – | – | ≥ 500 | > 100 | > 100 | > 100 | ≥ 500 | > 1000 | – | > 100 | – | – | – | – | – | – | – |
| O=S(=O)(Nc1cncc(Cl)n1)c1ccc(Br)cc1 [Compound 7b, 4-bromo-N-(6-chloropyrazin-2-yl)benzenesulfonamide] | – | – | 125 (≈ 359 µM) | 50 | – | 100 | 125 (≈ 359 µM) | 308 | 176.5 to 179.3 | > 100 | – | – | – | – | – | – | – |
| Cc1cc(C)cc(S(=O)(=O)Nc2cnccn2)c1 [Compound 8a, 3,5-dimethyl-N-(pyrazin-2-yl)benzenesulfonamide] | – | – | ≥ 500 | 50 | – | > 100 | 250 (≈ 949 µM) | > 500 | 184 to 187 | > 100 | – | – | – | – | – | – | – |
| Cc1cc(C)cc(S(=O)(=O)Nc2cncc(Cl)n2)c1 [Compound 8b, N-(6-chloropyrazin-2-yl)-3,5-dimethylbenzenesulfonamide] | – | – | ≥ 500 | > 100 | – | 50 | ≥ 500 | 523 | – | 50 | – | – | – | – | – | – | – |
| Cc1cc(C)c(S(=O)(=O)Nc2cnccn2)c(C)c1 [Compound 9a, 2,4,6-trimethyl-N-(pyrazin-2-yl)benzenesulfonamide] | – | – | 125 (≈ 451 µM) | > 100 | – | > 100 | ≥ 500 | > 250 | – | > 100 | – | – | – | – | – | – | – |
| Cc1cc(C)c(C)c(S(=O)(=O)Nc2cnccn2)c1C [Compound 10a, 2,3,5,6-tetramethyl-N-(pyrazin-2-yl)benzenesulfonamide] | – | – | ≥ 500 | 50 | – | > 100 | ≥ 500 | > 250 | 221 to 223.7 | > 100 | – | – | – | – | – | – | – |
| O=S(=O)(Nc1cnccn1)c1ccc(-c2ccccc2)cc1 [Compound 12a, N-(pyrazin-2-yl)-[1,1′-biphenyl]-4-sulfonamide] | – | – | ≥ 500 | 100 | – | 100 | ≥ 500 | > 250 | – | > 100 | 321 | – | – | – | – | – | – |
| CO[C@H]1/C=C/O[C@@]2(C)Oc3c(C)c(O)c4c(O)c(c(/C=N/N5CCN(C)CC5)c(O)c4c3C2=O)NC(=O)/C(C)=C\C=C\[C@H](C)[C@H](O)[C@@H](C)[C@@H](O)[C@@H](C)[C@H](OC(C)=O)[C@@H]1C [RFM, reference compound] | – | – | 12.5 to 25 (≈ 15.2 to 30.4 µM) | – | – | – | 0.78 to 1.56 (≈ 0.948 to 1.9 µM) | – | – | – | – | – | – | 25 | 1.56 | – | – |
| Nc1ccc(S(=O)(=O)Nc2cncc(Cl)n2)cc1 [Sulfaclozine, reference compound] | 6.25 µg/mL | – | – | – | – | – | – | – | – | – | – | – | – | 250 | 250 | 12.5 | 25 |
| Nc1ccc(S(=O)(=O)Nc2cnc3ccccc3n2)cc1 [Sulfaquinoxaline, reference compound] | – | – | 125 (≈ 416 µM) | 12.5 | – | 3.13 | 250 (≈ 832 µM) | – | – | 50 | – | – | – | – | – | – | – |

Reference: PMC6982817, “Substituted N-(Pyrazin-2-yl)benzenesulfonamides; Synthesis, Anti-Infective Evaluation, Cytotoxicity, and In Silico Studies” (Molecules, 2019)
